In one experiment the target is human CB1R (Homo sapiens, UniProt P21554). Kind of experiment: [35S]GTPγS binding assay, CHO-hCB1 membranes. Type of experiment: biochemical. Background: GTPγS is a poorly hydrolysed GTP analogue; its binding reports G protein activation.
Another experiment addresses human CB2R (Homo sapiens, UniProt P34972). Description: [35S]GTPγS binding assay, CHO-hCB2 membranes. Type of experiment: biochemical.
A further experiment deals with BALB/c mice. Description: Tetrad test. Type of experiment: in vivo, mouse. The note with it: pretreatment at 5 mg/kg.

Structures are written as SMILES.

Here are results for 2 molecules from article PMC6200358 (Science Advances, 2018).

As a reminder, the Emax is the maximal effect, on the per cent scale that the assay sets.

human CB2R, sequence (P34972 whole entry): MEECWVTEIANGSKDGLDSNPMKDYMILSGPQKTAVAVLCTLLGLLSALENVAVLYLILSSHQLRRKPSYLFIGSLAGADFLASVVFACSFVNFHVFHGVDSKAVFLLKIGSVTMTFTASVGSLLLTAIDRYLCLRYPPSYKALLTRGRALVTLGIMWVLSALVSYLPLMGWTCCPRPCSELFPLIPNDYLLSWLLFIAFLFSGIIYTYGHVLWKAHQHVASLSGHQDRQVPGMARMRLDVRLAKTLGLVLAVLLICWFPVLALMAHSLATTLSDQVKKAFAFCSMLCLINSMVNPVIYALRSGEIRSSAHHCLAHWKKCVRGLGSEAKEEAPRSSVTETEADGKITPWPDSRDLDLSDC
human CB1R, sequence (P21554 whole entry): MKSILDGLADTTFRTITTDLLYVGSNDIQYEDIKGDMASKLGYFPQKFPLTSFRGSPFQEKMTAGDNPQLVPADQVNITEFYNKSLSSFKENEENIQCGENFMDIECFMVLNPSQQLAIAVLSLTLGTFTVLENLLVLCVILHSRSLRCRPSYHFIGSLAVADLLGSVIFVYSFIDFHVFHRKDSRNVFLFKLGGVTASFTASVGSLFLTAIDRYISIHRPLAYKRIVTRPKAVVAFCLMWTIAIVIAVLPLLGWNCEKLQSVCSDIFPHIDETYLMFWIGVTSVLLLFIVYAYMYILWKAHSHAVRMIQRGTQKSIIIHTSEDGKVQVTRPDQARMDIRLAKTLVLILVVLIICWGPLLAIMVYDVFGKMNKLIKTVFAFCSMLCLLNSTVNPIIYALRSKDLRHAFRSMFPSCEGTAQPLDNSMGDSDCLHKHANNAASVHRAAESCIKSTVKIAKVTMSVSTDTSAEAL

In the case of `CCCCCCC(C)(C)c1ccc([C@@H]2C[C@H](O)CC[C@H]2CCCO)c(O)c1` [CP55,940], the “CB1R agonist type (full or partial agonist)” value on human CB1R ([35S]GTPγS binding) is reported as “full”. Moreover, the Emax at human CB1R (read-out: Receptor activation CB1R (Emax)) is 173 ± 6%; at human CB2R (read-out: Receptor activation CB2R (Emax)), 194 ± 5%. In addition, at human CB2R ([35S]GTPγS binding), the “CB2R agonist type (full or partial agonist)” value is given as “full”.

In the case of `Cc1c(C(=O)NN2CCCCC2)nn(-c2ccc(Cl)cc2Cl)c1-c1ccc(Cl)cc1` [rimonabant, Rimonabant], the “Blockade of the tetrad effects of PET and THC diastereoisomers” value in the experiment with BALB/c mice is reported as “fully abolished”.
